The values that follow come from patent US10583087B2, “Pharmaceutical composition for oral administration” (ASTELLAS PHARMA INC., priority 2015, dated 2020).

Series [1] is described as follows: Solubility of compound A in JP dissolution test fluids. In kind it is physicochemical.
Series [2] in a line: Behaviour of compound A upon contact with a solvent (gelation). In kind it is physicochemical. The conditions noted are these: solvent such as water.

Values after ≈ are worked out from the molar mass of the structure shown. Where two headings read alike, the source gives them in different places.

As a reminder, the solubility is the dissolved amount per volume that the medium holds.

For `CC[C@@H]1CCCN1Cc1sc(NC(=O)c2cnc(N3CCC(C(=O)O)CC3)cn2)nc1-c1ccc(OC)c(C(F)(F)F)c1` [Compound A, 1-{5-[(5-{[(2R)-2-ethylpyrrolidin-1-yl]methyl}-4-[4-methoxy-3-(trifluoromethyl)phenyl]-1,3-thiazol-2-yl)carbamoyl]pyrazin-2-yl}pyperidine-4-carboxylic acid], the “pH dependence of solubility” value in series [1] is listed as “pH-dependent”. Moreover, the solubility in series [1] (aqueous buffer, second fluid for a dissolution test of the Japanese Pharmacopoeia, JP2 (pH 6.8), read-out: solubility in a neutral pH range) is about 17.8 µg/mL (≈ 28.8 µM); in series [1] (simulated gastric fluid, first fluid for a dissolution test of the Japanese Pharmacopoeia, JP1 (pH 1.2), read-out: solubility in an acidic pH range), about 44.1 µg/mL (≈ 71.3 µM). In addition, the “gelation upon contact with a solvent” value in series [2] is “gelled upon contact with a solvent”.
